Consider 1 compound from patent publication EP0192327A2, “Use of phosphonoformic acid and its esters and salts for the manufacture of a medicament for the treatment of AIDS” (THE WELLCOME FOUNDATION LIMITED, priority 1985, dated 1986).

Data set [1] relates to HTLV-III. Description: Antiviral activity: protection of target T cells against the cytopathic effects of HTLV-III. The data set is classed as cell-based. As to conditions: Human immunodeficiency virus 1, T-cell; target T cells infected with HTLV-III; protection at 10µM and above; read-out: concentrations found to protect target T cells against the cytopathic effects of HTLV-III. As for the experimental part:
The compound of formula (1) in which R^1, R^2 and R^3 each represent a hydrogen atom was tested and found to protect target T cells against the cytopathic effects of HTLV-III at concentrations of 10µM and above.

Data set [2] in a line: Toxicity: cytotoxicity in FE-10 cells. It is filed as cell-based. The following applies: FE-10 (mouse modified 3T3) cells, no cytotoxicity up to 100µM, read-out: concentrations at which no cytotoxicity was observed.

The structures appear in SMILES notation.

Turning to `O=C(O)P(=O)(O)O` [phosphonoformic acid], the minimal effective concentration in data set [1] is not below 10 µM. Also, the MNTC in data set [2] was not below 100 µM.
